Tested on: Lipoclean lipase
Assay: Storage stability of liquid Lipoclean lipase formulation: residual lipase activity (PNP-Palmitate hydrolysis, 405 nm) versus frozen reference
Type: biochemical
Settings: 2% enzyme protein, sorbitol and glycerol, 0.08% Z-GAY-H, compared with frozen reference sample
Experimental: Lipoclean formulations, per se (LCLU/g) residual activities: The Lipase was formulated from crude concentrate with standard formulation ingredients (sorbitol and glycerol) with and without the serine protease inhibitor (2% enzyme protein, 0.08% Z-GAY-H added with a 1% DMSO solution). The solution was split into separate vials which were incubated at different temperature and times and compared in activity with a frozen reference sample frozen directly after mixing. The lipase activity was measured by ester bond hydrolysis in the substrate PNP-Palmitate (C:16) and releases PNP which is yellow and can be detected at 405 nm.

- residual activities (lipase) (2 weeks, 50° C.): 71%
- residual activities (lipase) (4 weeks, 40° C.): 70%
- residual activities (lipase) (4 weeks, 50° C.): 56%
Substance: Z-GAY-H [0.08% serine protease inhibitor]

Reference: patent US20120322715A1, “SERINE HYDROLASE FORMULATION” (NOVOZYMES A/S, priority 2010, published 2012)
